{"source": "ChEMBL document CHEMBL3885881", "about": "“DrugMatrix”", "organism": "Rattus norvegicus", "assay": "DrugMatrix - Regimen: Daily Repeat", "assay_type": "toxicity, organism-based, Sprague-Dawley", "parameters": "regimen Daily Repeat, gender Male, age 6-8 weeks", "settings": "in vivo, po, route oral GAVAGE, […]; for ABSOLUTE BASOPHIL / ABSOLUTE EOSINOPHIL / ABSOLUTE LYMPHOCYTE / ABSOLUTE MONOCYTE / ABSOLUTE SEGMENTED NEUTROPHIL / BASOPHIL / EOSINOPHIL / ERYTHROCYTE COUNT / HEMATOCRIT / HEMOGLOBIN / LEUKOCYTE COUNT / LYMPHOCYTE / MEAN CORPUSCULAR HEMOGLOBIN / MEAN CORPUSCULAR HEMOGLOBIN CONCENTRATION / MEAN CORPUSCULAR VOLUME / MONOCYTE / NEUTROPHIL / NUCLEATED RED BLOOD CELLS / PLATELET COUNT: tissue Blood; for ALANINE AMINOTRANSFERASE / ALBUMIN / ALKALINE PHOSPHATASE / ASPARTATE AMINOTRANSFERASE / BLOOD UREA NITROGEN / CARBON DIOXIDE / CHLORIDE / CHOLESTEROL / CREATINE PHOSPHOKINASE / CREATININE / GLUCOSE / LACTATE DEHYDROGENASE / LIPASE / PHOSPHORUS / POTASSIUM / SODIUM / TOTAL BILIRUBIN / TOTAL PROTEIN / URIC ACID: tissue Plasma", "key": {"[1]": {"settings": "0 mg/kg, 72 h, dose level Control, time 3 day"}, "[2]": {"settings": "0 mg/kg, 120 h, dose level Control, time 5 day"}, "[3]": {"settings": "0 mg/kg, dose level Control, time 14 day"}, "[4]": {"settings": "1200 mg/kg, 72 h, dose level High, time 3 day"}, "[5]": {"settings": "1200 mg/kg, dose level High, time 14 day"}}, "data": [{"smiles": "CC[C@H](C)C(=O)O[C@H]1C[C@H](O)C=C2C=C[C@H](C)[C@H](CC[C@@H](O)C[C@@H](O)CC(=O)O)[C@H]21", "note": "[PRAVASTATIN]", "values": [{"measurement": "ABSOLUTE BASOPHIL", "setting": "[1]", "value": 0, "unit": "CELLS/uL"}, {"measurement": "ABSOLUTE EOSINOPHIL", "setting": "[1]", "value": 14, "unit": "CELLS/uL"}, {"measurement": "ABSOLUTE LYMPHOCYTE", "setting": "[1]", "value": 11144.67, "unit": "CELLS/uL"}, {"measurement": "ABSOLUTE MONOCYTE", "setting": "[1]", "value": 22.5, "unit": "CELLS/uL"}, {"measurement": "ABSOLUTE SEGMENTED NEUTROPHIL", "setting": "[1]", "value": 535.5, "unit": "CELLS/uL"}, {"measurement": "BASOPHIL", "setting": "[1]", "value": 0, "unit": "%"}, {"measurement": "EOSINOPHIL", "setting": "[1]", "value": 0.17, "unit": "%"}, {"measurement": "ERYTHROCYTE COUNT", "setting": "[1]", "value": 5.08, "unit": "x10E6/uL"}, {"measurement": "HEMATOCRIT", "setting": "[1]", "value": 32.32, "unit": "%"}, {"measurement": "HEMOGLOBIN", "setting": "[1]", "value": 12.87, "unit": "G/DL"}, {"measurement": "LEUKOCYTE COUNT", "setting": "[1]", "value": 11.72, "unit": "x10E3/uL"}, {"measurement": "LYMPHOCYTE", "setting": "[1]", "value": 94.67, "unit": "%"}, {"measurement": "MEAN CORPUSCULAR HEMOGLOBIN", "setting": "[1]", "value": 25.37, "unit": "pg"}, {"measurement": "MEAN CORPUSCULAR HEMOGLOBIN CONCENTRATION", "setting": "[1]", "value": 39.85, "unit": "G/DL"}, {"measurement": "MEAN CORPUSCULAR VOLUME", "setting": "[1]", "value": 63.58, "unit": "fL"}, {"measurement": "MONOCYTE", "setting": "[1]", "value": 0.17, "unit": "%"}, {"measurement": "NEUTROPHIL", "setting": "[1]", "value": 5, "unit": "%"}, {"measurement": "NUCLEATED RED BLOOD CELLS", "setting": "[1]", "value": "0 /100WBC"}, {"measurement": "PLATELET COUNT", "setting": "[1]", "value": 1084, "unit": "x10E3/uL"}, {"measurement": "ALANINE AMINOTRANSFERASE", "setting": "[1]", "value": 67.5, "unit": "u/L"}, {"measurement": "ALBUMIN", "setting": "[1]", "value": 4.02, "unit": "G/DL"}, {"measurement": "ALKALINE PHOSPHATASE", "setting": "[1]", "value": 374.17, "unit": "u/L"}, {"measurement": "ASPARTATE AMINOTRANSFERASE", "setting": "[1]", "value": 83.5, "unit": "u/L"}, {"measurement": "BLOOD UREA NITROGEN", "setting": "[1]", "value": 14.5, "unit": "mg/dL"}, {"measurement": "CARBON DIOXIDE", "setting": "[1]", "value": 30, "unit": "mmol/L"}, {"measurement": "CHLORIDE", "setting": "[1]", "value": 100.5, "unit": "MEQ/L"}, {"measurement": "CHOLESTEROL", "setting": "[1]", "value": 71.33, "unit": "mg/dL"}, {"measurement": "CREATINE PHOSPHOKINASE", "setting": "[1]", "value": 268.33, "unit": "u/L"}, {"measurement": "CREATININE", "setting": "[1]", "value": 0.16, "unit": "mg/dL"}, {"measurement": "GLUCOSE", "setting": "[1]", "value": 170.5, "unit": "mg/dL"}, {"measurement": "LACTATE DEHYDROGENASE", "setting": "[1]", "value": 81.17, "unit": "u/L"}, {"measurement": "LIPASE", "setting": "[1]", "value": 16.67, "unit": "u/L"}, {"measurement": "PHOSPHORUS", "setting": "[1]", "value": 10.07, "unit": "mg/dL"}, {"measurement": "POTASSIUM", "setting": "[1]", "value": 5.03, "unit": "MEQ/L"}, {"measurement": "SODIUM", "setting": "[1]", "value": 142.92, "unit": "MEQ/L"}, {"measurement": "TOTAL BILIRUBIN", "setting": "[1]", "value": 0.17, "unit": "mg/dL"}, {"measurement": "TOTAL PROTEIN", "setting": "[1]", "value": 5.63, "unit": "G/DL"}, {"measurement": "URIC ACID", "setting": "[1]", "value": 0.5, "unit": "mg/dL"}, {"measurement": "ABSOLUTE SEGMENTED NEUTROPHIL", "setting": "[2]", "value": 646.83, "unit": "CELLS/uL"}, {"measurement": "NUCLEATED RED BLOOD CELLS", "setting": "[2]", "value": "0.17 /100WBC"}, {"measurement": "ABSOLUTE BASOPHIL", "setting": "[3]", "value": 100, "unit": "cells/µL"}, {"measurement": "ABSOLUTE EOSINOPHIL", "setting": "[3]", "value": 57.5, "unit": "cells/µL"}, {"measurement": "ABSOLUTE LYMPHOCYTE", "setting": "[3]", "value": 11800, "unit": "cells/µL"}, {"measurement": "ABSOLUTE MONOCYTE", "setting": "[3]", "value": 290, "unit": "cells/µL"}, {"measurement": "BASOPHIL", "setting": "[3]", "value": 0.47, "unit": "%"}, {"measurement": "EOSINOPHIL", "setting": "[3]", "value": 0.41, "unit": "%"}, {"measurement": "ERYTHROCYTE COUNT", "setting": "[3]", "value": 7.31, "unit": "x10E6/uL"}, {"measurement": "HEMATOCRIT", "setting": "[3]", "value": 46.8, "unit": "%"}, {"measurement": "HEMOGLOBIN", "setting": "[3]", "value": 14.69, "unit": "G/DL"}, {"measurement": "LEUKOCYTE COUNT", "setting": "[3]", "value": 14.73, "unit": "x10E3/uL"}, {"measurement": "LYMPHOCYTE", "setting": "[3]", "value": 80.94, "unit": "%"}, {"measurement": "MEAN CORPUSCULAR HEMOGLOBIN", "setting": "[3]", "value": 20.09, "unit": "pg"}, {"measurement": "MEAN CORPUSCULAR HEMOGLOBIN CONCENTRATION", "setting": "[3]", "value": 31.41, "unit": "G/DL"}, {"measurement": "MEAN CORPUSCULAR VOLUME", "setting": "[3]", "value": 64.03, "unit": "fL"}, {"measurement": "MONOCYTE", "setting": "[3]", "value": 1.9, "unit": "%"}, {"measurement": "NEUTROPHIL", "setting": "[3]", "value": 15.1, "unit": "%"}, {"measurement": "PLATELET COUNT", "setting": "[3]", "value": 1273.62, "unit": "x10E3/uL"}, {"measurement": "ALANINE AMINOTRANSFERASE", "setting": "[3]", "value": 56.75, "unit": "u/L"}, {"measurement": "ALBUMIN", "setting": "[3]", "value": 3.84, "unit": "G/DL"}, {"measurement": "ALKALINE PHOSPHATASE", "setting": "[3]", "value": 530.25, "unit": "u/L"}, {"measurement": "ASPARTATE AMINOTRANSFERASE", "setting": "[3]", "value": 78.88, "unit": "u/L"}, {"measurement": "BLOOD UREA NITROGEN", "setting": "[3]", "value": 12.25, "unit": "mg/dL"}, {"measurement": "CARBON DIOXIDE", "setting": "[3]", "value": 41.38, "unit": "mmol/L"}, {"measurement": "CHLORIDE", "setting": "[3]", "value": 102.38, "unit": "MEQ/L"}, {"measurement": "CHOLESTEROL", "setting": "[3]", "value": 67.88, "unit": "mg/dL"}, {"measurement": "CREATINE PHOSPHOKINASE", "setting": "[3]", "value": 297.25, "unit": "u/L"}, {"measurement": "CREATININE", "setting": "[3]", "value": 0.61, "unit": "mg/dL"}, {"measurement": "GLUCOSE", "setting": "[3]", "value": 161.88, "unit": "mg/dL"}, {"measurement": "LACTATE DEHYDROGENASE", "setting": "[3]", "value": 161.38, "unit": "u/L"}, {"measurement": "LIPASE", "setting": "[3]", "value": 16.75, "unit": "u/L"}, {"measurement": "PHOSPHORUS", "setting": "[3]", "value": 10.13, "unit": "mg/dL"}, {"measurement": "POTASSIUM", "setting": "[3]", "value": 6.73, "unit": "MEQ/L"}, {"measurement": "SODIUM", "setting": "[3]", "value": 149, "unit": "MEQ/L"}, {"measurement": "TOTAL BILIRUBIN", "setting": "[3]", "value": 0.29, "unit": "mg/dL"}, {"measurement": "TOTAL PROTEIN", "setting": "[3]", "value": 6.73, "unit": "G/DL"}, {"measurement": "URIC ACID", "setting": "[3]", "value": 1.14, "unit": "mg/dL"}, {"measurement": "ABSOLUTE BASOPHIL", "setting": "[4]", "value": 0, "unit": "CELLS/uL"}, {"measurement": "BASOPHIL", "setting": "[4]", "value": 0, "unit": "%"}, {"measurement": "NUCLEATED RED BLOOD CELLS", "setting": "1200 mg/kg, 120 h, dose level High, time 5 day", "value": "0 /100WBC"}, {"measurement": "ABSOLUTE BASOPHIL", "setting": "[5]", "value": 66.7, "unit": "cells/µL"}, {"measurement": "ABSOLUTE EOSINOPHIL", "setting": "[5]", "value": 80, "unit": "cells/µL"}, {"measurement": "ABSOLUTE LYMPHOCYTE", "setting": "[5]", "value": 4950, "unit": "cells/µL"}, {"measurement": "ABSOLUTE MONOCYTE", "setting": "[5]", "value": 1.18, "unit": "CELLS/uL"}, {"measurement": "BASOPHIL", "setting": "[5]", "value": 0.33, "unit": "%"}, {"measurement": "EOSINOPHIL", "setting": "[5]", "value": 0.5, "unit": "%"}, {"measurement": "ERYTHROCYTE COUNT", "setting": "[5]", "value": 8.11, "unit": "x10E6/uL"}, {"measurement": "HEMATOCRIT", "setting": "[5]", "value": 47.4, "unit": "%"}, {"measurement": "HEMOGLOBIN", "setting": "[5]", "value": 15.87, "unit": "G/DL"}, {"measurement": "LEUKOCYTE COUNT", "setting": "[5]", "value": 17.97, "unit": "x10E3/uL"}, {"measurement": "LYMPHOCYTE", "setting": "[5]", "value": 29.8, "unit": "%"}, {"measurement": "MEAN CORPUSCULAR HEMOGLOBIN", "setting": "[5]", "value": 19.53, "unit": "pg"}, {"measurement": "MEAN CORPUSCULAR HEMOGLOBIN CONCENTRATION", "setting": "[5]", "value": 33.43, "unit": "G/DL"}, {"measurement": "MEAN CORPUSCULAR VOLUME", "setting": "[5]", "value": 58.47, "unit": "fL"}]}]}
